Experiments:
Enterococcus faecium [1] = test: Bactericidal activity against vancomycin-resistant Enterococcus faecium clinical isolate 17301 after 24 hrs by two-fold serial dilution method; type: functional; details: isolate 17301, 24 h
Enterococcus faecium [2] = test: Bactericidal activity against vancomycin-resistant Enterococcus faecium clinical isolate 23/240 after 24 hrs by two-fold serial dilution method; type: functional; details: isolate 23/240, 24 h
Enterococcus faecium [3] = test: Bactericidal activity against vancomycin-resistant Enterococcus faecium clinical isolate 10177 after 24 hrs by two-fold serial dilution method; type: functional; details: isolate 10177, 24 h
Enterococcus faecium [4] = test: Bactericidal activity against vancomycin-resistant Enterococcus faecium clinical isolate 28/211 after 24 hrs by two-fold serial dilution method; type: functional; details: isolate 28/211, 24 h
Enterococcus faecium [5] = test: Bactericidal activity against vancomycin-resistant Enterococcus faecium clinical isolate 151495 after 24 hrs by two-fold serial dilution method; type: functional; details: isolate 151495, 24 h
Enterococcus faecium [6] = test: Bactericidal activity against vancomycin-resistant Enterococcus faecium clinical isolate 14643 after 24 hrs by two-fold serial dilution method; type: functional; details: isolate 14643, 24 h
Enterococcus faecium [7] = test: Bactericidal activity against vancomycin-resistant Enterococcus faecium clinical isolate 31386 after 24 hrs by two-fold serial dilution method; type: functional; details: isolate 31386, 24 h
Enterococcus faecium [8] = test: Bactericidal activity against vancomycin-resistant Enterococcus faecium clinical isolate 3864 after 24 hrs by two-fold serial dilution method; type: functional; details: isolate 3864, 24 h
Enterococcus faecium [9] = test: Bactericidal activity against vancomycin-resistant Enterococcus faecium clinical isolate 12875 after 24 hrs by two-fold serial dilution method; type: functional; details: isolate 12875, 24 h
Enterococcus faecium [10] = test: Bactericidal activity against vancomycin-resistant Enterococcus faecium clinical isolate 8/224 after 24 hrs by two-fold serial dilution method; type: functional; details: isolate 8/224, 24 h
Enterococcus faecium [11] = test: Bactericidal activity against vancomycin-resistant Enterococcus faecium clinical isolate 147969 after 24 hrs by two-fold serial dilution method; type: functional; details: isolate 147969, 24 h
Enterococcus faecium [12] = test: Bactericidal activity against vancomycin-resistant Enterococcus faecium clinical isolate 29/203 after 24 hrs by two-fold serial dilution method; type: functional; details: isolate 29/203, 24 h
Enterococcus faecium [13] = test: Bactericidal activity against vancomycin-resistant Enterococcus faecium clinical isolate 16475 after 24 hrs by two-fold serial dilution method; type: functional; details: isolate 16475, 24 h
Enterococcus faecium [14] = test: Bactericidal activity against vancomycin-resistant Enterococcus faecium clinical isolate 18906 after 24 hrs by two-fold serial dilution method; type: functional; details: isolate 18906, 24 h
[15] = Hemolytic activity against human RBC at MIC after 1 hr by spectrophotometry; type: ADME, cell-based; details: erythrocyte
HEK293 = test: Cytotoxicity against HEK293 cells at 100 to 400 uM after 48 to 72 hrs by MTT assay; type: cell-based; details: human, hek293, 400 µM
Enterococcus [16] = test: Antibacterial activity against vancomycin-resistant Enterococcus ATCC 51299 after 18 to 20 hrs by checkerboard titration method in presence of linezolid; type: functional
Enterococcus [17] = test: Antibacterial activity against vancomycin-resistant Enterococcus clinical isolate after 18 to 20 hrs by checkerboard titration method in presence of linezolid; type: functional
Enterococcus [18] = test: Antibacterial activity against vancomycin-resistant Enterococcus ATCC 51299 after overnight incubation by two-fold serial dilution method; type: functional
Enterococcus faecalis [19] = test: Antibacterial activity against vancomycin-resistant Enterococcus faecalis clinical isolate 5814 after overnight incubation by two-fold serial dilution method; type: functional
Enterococcus faecalis [20] = test: Antibacterial activity against vancomycin-resistant Enterococcus faecalis clinical isolate 7670 after overnight incubation by two-fold serial dilution method; type: functional
Enterococcus faecalis [21] = test: Antibacterial activity against vancomycin-resistant Enterococcus faecalis clinical isolate 7077 after overnight incubation by two-fold serial dilution method; type: functional
Enterococcus faecalis [22] = test: Antibacterial activity against vancomycin-resistant Enterococcus faecalis clinical isolate 7846 after overnight incubation by two-fold serial dilution method; type: functional
Enterococcus faecalis [23] = test: Antibacterial activity against vancomycin-resistant Enterococcus faecalis clinical isolate 21/235 after overnight incubation by two-fold serial dilution method; type: functional
Enterococcus faecalis [24] = test: Antibacterial activity against vancomycin-resistant Enterococcus faecalis clinical isolate 5642 after overnight incubation by two-fold serial dilution method; type: functional
Enterococcus faecalis [25] = test: Antibacterial activity against vancomycin-resistant Enterococcus faecalis clinical isolate 6093 after overnight incubation by two-fold serial dilution method; type: functional
Enterococcus faecalis [26] = test: Antibacterial activity against vancomycin-resistant Enterococcus faecalis clinical isolate 22/203 after overnight incubation by two-fold serial dilution method; type: functional
Enterococcus faecalis [27] = test: Antibacterial activity against vancomycin-resistant Enterococcus faecalis clinical isolate 387702 after overnight incubation by two-fold serial dilution method; type: functional
Enterococcus faecalis [28] = test: Antibacterial activity against vancomycin-resistant Enterococcus faecalis clinical isolate 5648 after overnight incubation by two-fold serial dilution method; type: functional
Enterococcus faecium [29] = test: Antibacterial activity against vancomycin-resistant Enterococcus faecium clinical isolate 23/240 after overnight incubation by two-fold serial dilution method; type: functional
Enterococcus faecium [30] = test: Antibacterial activity against vancomycin-resistant Enterococcus faecium clinical isolate 151495 after overnight incubation by two-fold serial dilution method; type: functional
Enterococcus faecium [31] = test: Antibacterial activity against vancomycin-resistant Enterococcus faecium clinical isolate 14643 after overnight incubation by two-fold serial dilution method; type: functional
Enterococcus faecium [32] = test: Antibacterial activity against vancomycin-resistant Enterococcus faecium clinical isolate 5396 after overnight incubation by two-fold serial dilution method; type: functional
Enterococcus faecium [33] = test: Antibacterial activity against vancomycin-resistant Enterococcus faecium clinical isolate 3864 after overnight incubation by two-fold serial dilution method; type: functional
Enterococcus faecium [34] = test: Antibacterial activity against vancomycin-resistant Enterococcus faecium clinical isolate 27/16917 after overnight incubation by two-fold serial dilution method; type: functional; details: isolate 27/1691
Enterococcus faecium [35] = test: Antibacterial activity against vancomycin-resistant Enterococcus faecium clinical isolate 27/221 after overnight incubation by two-fold serial dilution method; type: functional
Enterococcus faecium [36] = test: Antibacterial activity against vancomycin-resistant Enterococcus faecium clinical isolate 147969 after overnight incubation by two-fold serial dilution method; type: functional
Enterococcus faecium [37] = test: Antibacterial activity against vancomycin-resistant Enterococcus faecium clinical isolate 29/203 after overnight incubation by two-fold serial dilution method; type: functional
Enterococcus faecium [38] = test: Antibacterial activity against vancomycin-resistant Enterococcus faecium clinical isolate 5484 after overnight incubation by two-fold serial dilution method; type: functional
Enterococcus faecium [39] = test: Antibacterial activity against vancomycin-resistant Enterococcus faecium clinical isolate 12/266 after overnight incubation by two-fold serial dilution method; type: functional
Enterococcus faecium [40] = test: Antibacterial activity against vancomycin-resistant Enterococcus faecium clinical isolate 18906 after overnight incubation by two-fold serial dilution method; type: functional
Enterococcus faecium [41] = test: Antibacterial activity against vancomycin-resistant Enterococcus faecium clinical isolate 13246 after overnight incubation by two-fold serial dilution method; type: functional
Enterococcus [42] = test: Bactericidal activity against […] after 24 hrs by two-fold serial dilution method; type: functional; details: ATCC 29212, 24 h
Enterococcus faecalis [43] = test: Bactericidal activity against vancomycin-resistant Enterococcus faecalis clinical isolate 7077 after 24 hrs by two-fold serial dilution method; type: functional; details: isolate 7077, 24 h
Enterococcus faecalis [44] = test: Bactericidal activity against vancomycin-resistant Enterococcus faecalis clinical isolate 21/235 after 24 hrs by two-fold serial dilution method; type: functional; details: isolate 21/235, 24 h
Enterococcus faecalis [45] = test: Bactericidal activity against vancomycin-resistant Enterococcus faecalis clinical isolate 6093 after 24 hrs by two-fold serial dilution method; type: functional; details: isolate 6093, 24 h
Enterococcus faecalis [46] = test: Bactericidal activity against vancomycin-resistant Enterococcus faecalis clinical isolate 387702 after 24 hrs by two-fold serial dilution method; type: functional; details: isolate 387702, 24 h

H-RWRLLLLKKH-OH
MBC (Enterococcus faecium [1]): 25 µg/mL
MBC (Enterococcus faecium [2]): 25 µg/mL
MBC (Enterococcus faecium [3]): 25 µg/mL
MBC (Enterococcus faecium [4]): 25 µg/mL
MBC (Enterococcus faecium [5]): 25 µg/mL
MBC (Enterococcus faecium [6]): 25 µg/mL
MBC (Enterococcus faecium [7]): 25 µg/mL
MBC (Enterococcus faecium [8]): 25 µg/mL
MBC (Enterococcus faecium [9]): 25 µg/mL
MBC (Enterococcus faecium [10]): 25 µg/mL
MBC (Enterococcus faecium [11]): 25 µg/mL
MBC (Enterococcus faecium [12]): 25 µg/mL
MBC (Enterococcus faecium [13]): 25 µg/mL
MBC (Enterococcus faecium [14]): 25 µg/mL
Activity [15]: Non-toxic
Activity (HEK293): Non-toxic
fractional inhibitory concentration index (FICI) (Enterococcus [16]): 2.1
fractional inhibitory concentration index (FICI) (Enterococcus [17]): 2
MIC (Enterococcus [18]): 25 µg/mL
MIC (Enterococcus faecalis [19]): 12.5 µg/mL
MIC (Enterococcus faecalis [20]): 12.5 µg/mL
MIC (Enterococcus faecalis [21]): 12.5 µg/mL
MIC (Enterococcus faecalis [22]): 12.5 µg/mL
MIC (Enterococcus faecalis [23]): 12.5 µg/mL
MIC (Enterococcus faecalis [24]): 12.5 µg/mL
MIC (Enterococcus faecalis [25]): 12.5 µg/mL
MIC (Enterococcus faecalis [26]): 12.5 µg/mL
MIC (Enterococcus faecalis [27]): 6.25 µg/mL
MIC (Enterococcus faecalis [28]): 12.5 µg/mL
MIC (Enterococcus faecium [29]): 12.5 µg/mL
MIC (Enterococcus faecium [30]): 6.25 µg/mL
MIC (Enterococcus faecium [31]): 6.25 µg/mL
MIC (Enterococcus faecium [32]): 6.25 µg/mL
MIC (Enterococcus faecium [33]): 6.25 µg/mL
MIC (Enterococcus faecium [34]): 12.5 µg/mL
MIC (Enterococcus faecium [35]): 12.5 µg/mL
MIC (Enterococcus faecium [36]): 12.5 µg/mL
MIC (Enterococcus faecium [37]): 12.5 µg/mL
MIC (Enterococcus faecium [38]): 12.5 µg/mL
MIC (Enterococcus faecium [39]): 6.25 µg/mL
MIC (Enterococcus faecium [40]): 12.5 µg/mL
MIC (Enterococcus faecium [41]): 12.5 µg/mL
MBC (Enterococcus [42]): 25 µg/mL
MBC (Enterococcus faecalis [43]): 25 µg/mL
MBC (Enterococcus faecalis [44]): 25 µg/mL
MBC (Enterococcus faecalis [45]): 25 µg/mL
MBC (Enterococcus faecalis [46]): 25 µg/mL

Reference: ChEMBL document CHEMBL3352237, “Synthesis and biological evaluation of novel peptide BF2 as an antibacterial agent against clinical isolates of vancomycin-resistant enterococci” (J Med Chem, 2014)
